Test results taken from US20090123565A9, “Copper-dependent non-traditional pro-inflammatory cytokine export and methods, compositions and kits relating thereto” (Maine Medical Center Research Institute, priority 2001, published 2009).

Experiments:
[1] = tested on: balloon-injured rat carotid artery; assay: Macrophage infiltration into injured arterial wall (CD11b/MAC1 immunostaining); format: in vivo, Sprague-Dawley rats
Method: In order to address the mechanisms underlying the effect of copper chelation on neointima formation, TTM was administered for 2 weeks before the balloon injury and daily after that until the animals were euthanized at the 4th and 7th day after the procedure. Accordingly, TTM-free animals euthanized 4 and 7 days after the injury were used as controls.
Macrophage migration was evaluated by immunostaining with the macrophage-specific monoclonal antibody CD11b (MAC1) in acetone/ethanol fixed sections. To quantitate the extent of macrophage invasion, the area occupied by MAC1-positive cells as a percentage of the total area of the neointima was determined. The number of SMCs in the injured artery was counted at day 4, 7 and 14 by the modified method of Prescott et al. Briefly, the cross-sections were subjected to immunohistostaining against α-smooth muscle actin using a commercially available detection system (DAKO) and counter-stained with hematoxylin. The number of nuclei that were accompanied by α-smooth muscle actin-positive cytoplasm was counted at a magnification of ×40 in 10 independent sections from each rat by an observer in a blind manner.

[2] = rat, in vivo, 10 mg/kg
Method: A copper chelator, ammonium tetrathiomolybdate (Sigma Aldrich), was administered daily in a dose of 10 mg/kg. The total daily amount was freshly dissolved into 45 ml water and was dispensed to the rats in the drinking water. To assess the effect of copper chelation on neointimal formation after common carotid artery denudation, TTM was given as follows: TTM administration started 2 weeks before the injury in 6 rats; 1 week before the injury in 6 rats; there was no pre-injury treatment with TTM in 5 rats. All those rats were treated with TTM for 2 weeks after the balloon injury. Five rats, which underwent the surgical procedure and were never treated with TTM, served as controls.

serum ceruloplasmin = assay: Serum ceruloplasmin (surrogate marker of free copper) in rats; format: in vivo, Sprague-Dawley rats; conditions: daily 10 mg/kg TTM within 4 weeks
Method: Copper status in mammals treated with TTM cannot be reliably followed by measuring total serum copper level because the chelated copper will still be detected. Serum ceruloplasmin, whose synthesis is directly regulated by the bio-availability of copper to the liver, is a more accurate indicator of free copper and is used as a surrogate marker of free copper status Schosinksy et al., 1974, Clin. Chem. 20:1556-1563. Serum ceruloplasmin was assessed as baseline level before the TTM-treatment, as well as on the day of the injury and on the final day. Blood (0.5 to 1 ml) was obtained from the tail vein after anesthesia was centrifuged for 10 minutes at 2000×G and the serum was frozen at −20° C. until assay. Ceruloplasmin oxidative activity was measured as described previously (Schosinsky et al., 1974, Clin. Chem. 20:1556-1563).

[3] = tested on: IL1α release from NIH 3T3 cell transfectants; assay: Heat shock-induced release of IL1α from NIH 3T3 cell transfectants (immunoblot of conditioned media); format: cell-based, human
Method: FIG. 5, comprising FIGS. 5A and 5B, depict the involvement of Cu^2+ in IL1α release. FIG. 5A is an image depicting results obtained using NIH 3T3 cells stably transfected with mIL1α-βGal. The cells were incubated for 18 hours at 37 C in the absence and presence of the Cu^2+ chelator, tetrathiomolybdate (TTM) as indicated and the untreated and treated cells either maintained at 37 C or subjected to heat shock as described in FIG. 3. The conditioned medium was evaluated for IL1α-βGal release by IL1α immunoblot analysis, and cell lysates from TTM-treated cells were used to monitor the intracellular level of IL1α-βGal expression. […] FIG. 5B is an image depicting release of IL1α-βGal in myc-S100A13 and IL1α-βGal NIH 3T3 cell cotransfectants and in insert-less vector and mIL1α-βGal NIH 3T3 cell transfectants in the presence and absence actinomycin D (10 μg/ml), as indicated, in response to heat shock. Conditioned media were processed and evaluated for IL1α-βGal immunoblot analysis as described in Tarantini et al. (2001).
Stable NIH 3T3 cell transfectants were generated accordingly with the following cDNA constructs cloned into pMEXneo (Tarantini, et al. 2001; Tarantini, et al. 1995; Tarantini, et al. 1998; LaVallee, et al. 1998; Carreira, et al. 1998; Landriscina, et al., 2001): human S100A13 with an amino-terminal fusion to a 6 Myc Tag (Myc-S100A13) (Landriscina, et al., 2001); human Myc-S100A13ΔBR (Landriscina, et al., 2001); human mIL1α (residues 113-271); human mIL1α with a carboxy-terminal fusion to a βGalactosidase tag (mIL1α-βGal) (Tarantini, et al. 2001); and pIL1α (residues 1-271) with a carboxy-terminal fusion to βGalactosidase (pIL1α-βGal) (Tarantini, et al. 2001). Recombinant human mIL1α was provided by Hoffmann-LaRoche. Recombinant human S100A13, as well as S100A13ΔBR, a S100A13 construct with the basic residue rich domain (residues 88 to 98) deleted, were generated as previously described (Landriscina, et al., 2001).
NIH 3T3 cell transfectants were grown to 70-80% confluency and prior to temperature stress, the cells were washed with serum-free DMEM. The heat shock was performed as previously described (Tarantini et al., 1995) in serum-free DMEM for 110 min at 42° C. Control cultures were incubated at 37° C. in serum-free DMEM. […] Immunoprecipitated and eluted proteins were resolved by 8% and 12% acrylamide SDS-PAGE, respectively, and evaluated by either IL1α (Tarantini, et al. 2001) or Myc (Landriscina, et al., 2001) immunoblot analysis. […] The effects of actinomycin D (Sigma Chemical Co., St. Louis, Mo.), cyclohexamide (Sigma) and tetrathiomolybdate (Sigma-Aldrich) on IL1α release were evaluated as previously reported (LaVallee et al., 1998).

## [NH4+].[NH4+].[SH-].[SH-].[S]=[Mo]=[S] [TTM, ammonium tetrathiomolybdate]
[1]; 4 and 7 days after the injury
  MAC1 positive cells in controls compared to treated rats: marked increase
[1]; 4 days after injury
  macrophages in the neointima vs control group: not detectably different
[1]; any time point after the injury (4 and 7 days)
  macrophages within the arterial wall: very few macrophages were present
[1]; day 7 after injury
  macrophages vs controls: more pronounced in the controls
[2]
  effects upon visual inspection of the animals: without detectable effects
Serum ceruloplasmin
  ceruloplasmin reduction to: 0-20 % of its baseline level
[3]; NIH 3T3 cells stably transfected with mIL1α-βGal, incubated 18 hours at 37 C with TTM, then heat shock, IL1α immunoblot (FIG. 5A)
  concentration at which TTM inhibited release of IL1α in response to heat shock: 250 nM
[3]; TTM introduced into the Myc-S100A13 and IL1α-βGal cotransfectant system with actinomycin D
  repression of release of IL1α-βGal in response to temperature stress: able to repress
